Source: PubChem BioAssay AID1963837 (Molecular Pharmacology Branch, DTP, NCI, 2024)
“And” between values parts separate entries of the source, which are not always exact repeats. Identical values can stand only once.

Tested on: 843126-344-R-J1-PDC complex spheroid viability
Test: Anticancer human tumor 843126-344-R-J1-PDC patient-derived melanoma cell line growth inhibition [POLQ]
Conditions: for viability, T/C: stronger effect = lower value
Experimental: Multicellular complex tumor spheroid response to Polymerase (POL) inhibitors (novobiocin, ART-558, RP6685) in combination with a variety of drugs and investigational agents in selected tumor cell lines
The POL inhibitors (novobiocin, ART-558, and RP6685) were evaluated both individually and in combination with standard of care and investigational anticancer small molecules within a complex spheroid model of solid tumors. . Complex spheroids include a stromal component modeled by human endothelial cells (HUVEC) and fibroblasts modeled by human mesenchymal stem cells (MSCs). The concentration ranges selected for each drug and investigational agent were based upon clinically achievable concentrations if the clinical Cmax of the agent was known.
Compounds. The drugs and investigational agents: novobiocin (NSC847541), ART-558 (NSC835418), RP-6685 (NSC848927), peposertib (NSC802822), ceralasertib (NSC780249), elimusertib (NSC800525), camonsertib (NSC841442), AZD-1390 (NSC803789), olaparib (NSC753686), talazoparib (NSC767125), rucaparib (NSC756644), sotorasib (NSC818433), MRTX-1133 (NSC836407), SN-38 (NSC673596), topotecan (NSC609699), epotoside (NSC141540), doxorubicin (NSC123127), gemcitabine (NSC613327), 5-fluorouracil (NSC19893), paclitaxel (NSC125973), vemurafenib (NSC761431), MSA-2 (NSC828583), SN-011 (NSC837082), adavosertib (NSC754352), prexasertib (NSC758257), carboplatin (NSC241240) and oxaliplatin (NSC266046), were obtained from the National Cancer Institute (NCI) Developmental Therapeutics Program Chemical Repository (21). The FDA-approved anticancer drug set is available from the Developmental Therapeutics Program at https://dtp.cancer.gov/organization/dscb/obtaining/. […] The stock solutions were prepared in dimethyl sulfoxide (DMSO, Sigma-Aldrich, St. Louis, MO, cat. D2650), except for the platinum compounds which were prepared in saline (Quality Biological, Gaithersburg, MD, cat. 114-055-101), at 800-fold the tested concentration and stored at -70 degrees C prior to their use. All drugs and investigational agents were tested over a range starting from a high concentration at or near the clinical Cmax and decreasing in half-log increments. If the clinical Cmax for an agent had not been determined, the highest concentration tested was 10 microM, except for SN-38, which was tested at a high concentration of 1 microM.
Cell Culture. All cells were maintained in an incubator at 37 degrees C and 5% CO2 with 95% humidity. The PDC lines were cultured according to standard operating procedures established by the NCI PDMR (https://pdmr.cancer.gov). Table 3 of the manuscript, lists the cell lines along with the number of the three cell types plated to form the mct-spheroids and media for tumor cell growth. After thawing, all PDC lines, except 997537-175-T-J1-PDC and 415267-285-R-J2-PDC, were cultured in Matrigel-coated flasks prepared with a working solution of 1X Ham's F-12 nutrient mix, without supplementation (Thermo Fisher Scientific, cat. 11765054), 100 U/mL penicillin-streptomycin (Thermo Fisher Scientific, cat. 15140122), and 2.5% Matrigel (Corning Inc., Corning, NY, cat. 354248) for the first three passages. The two PDC lines 997537-175-T-J1-PDC and 415267-285-R-J2-PDC were cultured on uncoated flasks. The 857933-349-R-J2-PDC line was cultured in 6C/Colon 1B media containing advanced DMEM/F-12 (Thermo Fisher Scientific, cat. 12634028), 10 mM HEPES (Thermo Fisher Scientific, cat. 15630080), 1X GlutaMAX supplement (Thermo Fisher Scientific, cat. 35050061), 0.1 mg/mL primocin (InvivoGen, San Diego, CA, cat. ant-pm-2), 10% defined fetal bovine serum, heat inactivated (HyClone Laboratories Inc., Logan, UT, cat. SH30070.03HI), 50% L-WRN conditioned media (ATCC, cat. CRL-3276), 1.25 mM N-Acetyl-L-cysteine (Sigma-Aldrich, cat. A9165), 10 mM nicotinamide (Sigma-Aldrich, cat. N0636), 1X B-27 supplement (Thermo Fisher Scientific, cat. 17504044), 1X N-2 supplement (Thermo Fisher Scientific, cat. […]
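Wherever viability, T/C is given: spheroids exposed to drugs for seven days before readout.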

CC1COCCN1c1cc(-c2ccnn2C)c2ccnc(-c3ccn[nH]3)c2n1 (stereo not drawn)
viability, T/C (compound 0.0316 µM): 93.7% and 70.9% and 85.8% | viability, T/C (compound 0.1 µM): 87% and 64.9% and 70.9% | viability, T/C (compound 0.316 µM): 85.9% and 57.1% and 61.9% | viability, T/C (compound 1 µM): 44.4% and 47.7% and 48.8% | viability, T/C (compound 3.16 µM): 38.5% and 40.5% and 38.8% | viability, T/C (compound 10 µM): 33.1% and 23.9% and 32.7% | IC50 (curve of compound): 858 nM and 836 nM and 903 nM

C=CC(=O)N1CCN(c2nc(=O)n(-c3c(C)ccnc3C(C)C)c3nc(-c4c(O)cccc4F)c(F)cc23)C(C)C1 (stereo not drawn)
viability, T/C (compound 0.0316 µM): 96.7% and 98.3% and 89.5% | viability, T/C (compound 0.1 µM): 85.1% and 110% and 73.2% | viability, T/C (compound 0.316 µM): 104% and 107% and 95.8% | viability, T/C (compound 1 µM): 104% and 85.4% and 106% | viability, T/C (compound 3.16 µM): 92.8% and 96.1% and 113% | viability, T/C (compound 10 µM): 67.2% and 91% and 79.3% | IC50 (curve of compound): > 10000 nM

COc1cccc2c1C(=O)c1c(O)c3c(c(O)c1C2=O)CC(O)(C(=O)CO)CC3OC1CC(N)C(O)C(C)O1 (stereo not drawn)
viability, T/C (compound 0.0316 µM): 82.8% and 77.3% and 86.3% | viability, T/C (compound 0.1 µM): 70.2% and 71% and 79.7% | viability, T/C (compound 0.316 µM): 44.3% and 47.8% and 56.8% | viability, T/C (compound 1 µM): 12.3% and 15.1% and 18.4% | viability, T/C (compound 3.16 µM): 4.78% and 2.95% and 3.66% | viability, T/C (compound 10 µM): 3.94% and 2.18% and 3.96% | IC50 (curve of compound): 237 nM and 282 nM and 385 nM

C=CC(=O)N1CCN(c2nc(=O)n(-c3c(C)ccnc3C(C)C)c3nc(-c4c(O)cccc4F)c(F)cc23)C(C)C1 (stereo not drawn) + Cc1cccc(N(C)C(=O)C2C(O)CCN2c2nc(C)cc(C(F)(F)F)c2C#N)c1
IC50 (curve of first compound, second compound 0.0316 µM): > 10000 nM | IC50 (curve of first compound, second compound 0.1 µM): > 10000 nM | IC50 (curve of first compound, second compound 0.316 µM): > 10000 nM | IC50 (curve of first compound, second compound 1 µM): > 10000 nM | IC50 (curve of first compound, second compound 3.16 µM): > 10000 nM | IC50 (curve of first compound, second compound 10 µM): > 10000 nM | viability, T/C (second compound 0.0316 µM, first compound 0.0316 µM): 87.6% | viability, T/C (second compound 0.0316 µM, first compound 0.1 µM): 95.2% | viability, T/C (second compound 0.0316 µM, first compound 0.316 µM): 122% | viability, T/C (second compound 0.0316 µM, first compound 1 µM): 94.6% | viability, T/C (second compound 0.0316 µM, first compound 3.16 µM): 89.6% | viability, T/C (second compound 0.0316 µM, first compound 10 µM): 78.6% | viability, T/C (second compound 0.1 µM, first compound 0.0316 µM): 81.8% | viability, T/C (second compound 0.1 µM, first compound 0.1 µM): 81.3% | viability, T/C (second compound 0.1 µM, first compound 0.316 µM): 94.7% | viability, T/C (second compound 0.1 µM, first compound 1 µM): 97% | viability, T/C (second compound 0.1 µM, first compound 3.16 µM): 80.7% | viability, T/C (second compound 0.1 µM, first compound 10 µM): 80.7% | viability, T/C (second compound 0.316 µM, first compound 0.0316 µM): 81.3% | viability, T/C (second compound 0.316 µM, first compound 0.1 µM): 85.6% | viability, T/C (second compound 0.316 µM, first compound 0.316 µM): 91.1% | viability, T/C (second compound 0.316 µM, first compound 1 µM): 107% | viability, T/C (second compound 0.316 µM, first compound 3.16 µM): 84% | viability, T/C (second compound 0.316 µM, first compound 10 µM): 69.9% | viability, T/C (second compound 1 µM, first compound 0.0316 µM): 89.7% | viability, T/C (second compound 1 µM, first compound 0.1 µM): 84.7% | viability, T/C (second compound 1 µM, first compound 0.316 µM): 84.2% | viability, T/C (second compound 1 µM, first compound 1 µM): 90.2% | viability, T/C (second compound 1 µM, first compound 3.16 µM): 106% | viability, T/C (second compound 1 µM, first compound 10 µM): 71.3% | viability, T/C (second compound 3.16 µM, first compound 0.0316 µM): 91.2% | viability, T/C (second compound 3.16 µM, first compound 0.1 µM): 74.5% | viability, T/C (second compound 3.16 µM, first compound 0.316 µM): 104% | viability, T/C (second compound 3.16 µM, first compound 1 µM): 91.5% | viability, T/C (second compound 3.16 µM, first compound 3.16 µM): 120% | viability, T/C (second compound 3.16 µM, first compound 10 µM): 66.8% | viability, T/C (second compound 10 µM, first compound 0.0316 µM): 77.1% | viability, T/C (second compound 10 µM, first compound 0.1 µM): 81% | viability, T/C (second compound 10 µM, first compound 0.316 µM): 89.2% | viability, T/C (second compound 10 µM, first compound 1 µM): 89.5% | viability, T/C (second compound 10 µM, first compound 3.16 µM): 83.5% | viability, T/C (second compound 10 µM, first compound 10 µM): 70.1%
